Measurements reported in US10947210B2 (priority 2015, dated 2021).

The compounds below were run against HCV RNA-dependent RNA polymerase (NS5B) (Hepatitis C virus genotype 1b (isolate BK) (HCV), UniProt P26663) (assay: RNA-Dependent RNA HCV NS5B (polymerase) Assay and IC50 Determination). Conditions: purified HCV NS5B polymerase, polyA:U16 substrate, 32P-UTP incorporation; read-out: IC50.
Assay type: biochemical
Summary of the method: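 Purified NS5B was incubated with 0.5 uM polyA:U16, 10 μM UTP plus ^32P-UTP in 50 mM Hepes-KOH pH 7.5, 5 mM MgCl2, 5 mM DTT, 2% glycerol and 0.01% Triton X-100. Inhibitor reactions ran 60 min at 37° C, and radiolabelled RNA product was quantified after filter capture. IC50 values were obtained from concentration series.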

HCV RNA-dependent RNA polymerase (NS5B), sequence (P26663 2420-3010): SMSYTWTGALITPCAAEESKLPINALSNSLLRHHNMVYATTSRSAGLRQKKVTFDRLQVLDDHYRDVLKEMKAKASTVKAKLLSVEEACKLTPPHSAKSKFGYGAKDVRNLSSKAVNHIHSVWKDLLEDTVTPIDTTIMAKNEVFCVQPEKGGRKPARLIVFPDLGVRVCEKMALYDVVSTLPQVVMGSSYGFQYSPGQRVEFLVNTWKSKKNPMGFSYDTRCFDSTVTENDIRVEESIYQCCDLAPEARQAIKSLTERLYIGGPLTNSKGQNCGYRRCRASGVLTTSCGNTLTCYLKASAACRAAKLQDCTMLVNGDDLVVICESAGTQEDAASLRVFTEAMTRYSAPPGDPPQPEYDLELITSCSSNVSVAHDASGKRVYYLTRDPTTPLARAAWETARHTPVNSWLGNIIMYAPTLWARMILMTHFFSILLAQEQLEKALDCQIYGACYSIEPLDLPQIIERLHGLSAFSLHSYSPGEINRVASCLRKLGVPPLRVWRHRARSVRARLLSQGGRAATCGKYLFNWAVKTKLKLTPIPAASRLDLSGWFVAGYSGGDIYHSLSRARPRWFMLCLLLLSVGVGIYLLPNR

Q: Which IC50 does the source give for `CNC(=O)c1c(-c2ccc(F)cc2)oc2cc(N(CCCCCOCc3ccc(C(=O)OC)cc3)S(C)(=O)=O)c(C3CC3)cc12` [Compound 16-6, 4-(5-{[5-Cyclopropyl-2-(4-fluoro-phenyl)-3-methylcarbamoyl-benzofuran-6-yl]-methanesulfonyl-amino}-pentyloxymethyl)-benzoic Acid Methyl Ester] here?
A: The IC50 was greater than 1 µM.

Q: `CNC(=O)c1c(-c2ccc(F)cc2)oc2cc(N(CCOCCOCc3ccc(F)c(C(=O)NO)c3)S(C)(=O)=O)c(C3CC3)cc12` [Compound 17A-8B, 5-Cyclopropyl-6-({2-[2-(4-fluoro-3-hydroxycarbamoyl-benzyloxy)-ethoxy]-ethyl}-methanesulfonyl-amino)-2-(4-fluoro-phenyl)-benzofuran-3-carboxylic Acid Methylamide] was tested. Which IC50 did it give?
A: Its IC50 is greater than 1 µM.

Q: For `CNC(=O)c1c(-c2ccc(F)cc2)oc2cc(N(CCOCCOCc3ccc(C(=O)OC)c(C)c3)S(C)(=O)=O)c(C3CC3)cc12` [Compound 18-9A, 4-[2-(2-{[5-Cyclopropyl-2-(4-fluoro-phenyl)-3-methylcarbamoyl-benzofuran-6-yl]-methanesulfonyl-amino}-ethoxy)-ethoxymethyl]-2-methyl-benzoic Acid Methyl Ester], which IC50 is on record?
A: The IC50 was greater than 1 µM.

Q: `CNC(=O)c1c(-c2ccc(F)cc2)oc2cc(N(CCOCCOCc3ccc(C(=O)OC)cc3C)S(C)(=O)=O)c(C3CC3)cc12` [Compound 18-9B, 4-[2-(2-{[5-Cyclopropyl-2-(4-fluoro-phenyl)-3-methylcarbamoyl-benzofuran-6-yl]-methanesulfonyl-amino}-ethoxy)-ethoxymethyl]-3-methyl-benzoic Acid Methyl Ester] was tested. Which IC50 did it give?
A: Its IC50 is greater than 1 µM.

Q: `CNC(=O)c1c(-c2ccc(F)cc2)oc2cc(N(CCOCCOCc3ccc(C(=O)O)c(C)c3)S(C)(=O)=O)c(C3CC3)cc12` [Compound 18-10A, 4-[2-(2-{[5-Cyclopropyl-2-(4-fluoro-phenyl)-3-methylcarbamoyl-benzofuran-6-yl]-methanesulfonyl-amino}-ethoxy)-ethoxymethyl]-2-methyl-benzoic Acid] was tested. Which IC50 did it give?
A: The IC50 was 0.1 to 1 µM.

Q: For `CNC(=O)c1c(-c2ccc(F)cc2)oc2cc(N(CCOCCOCc3ccc(C(=O)O)cc3C)S(C)(=O)=O)c(C3CC3)cc12` [Compound 18-10B, 4-[2-(2-{[5-Cyclopropyl-2-(4-fluoro-phenyl)-3-methylcarbamoyl-benzofuran-6-yl]-methanesulfonyl-amino}-ethoxy)-ethoxymethyl]-3-methyl-benzoic Acid], which IC50 is on record?
A: The IC50 was less than 0.1 µM.

Q: For `CNC(=O)c1c(-c2ccc(F)cc2)oc2cc(N(CCOCCOCc3ccnc(Cl)c3)S(C)(=O)=O)c(C3CC3)cc12` [Compound 19-8A, 6-({2-[2-(2-Chloro-pyridin-4-ylmethoxy)-ethoxy]-ethyl}-methanesulfonyl-amino)-5-cyclopropyl-2-(4-fluoro-phenyl)-benzofuran-3-carboxylic Acid Methylamide], which IC50 is on record?
A: Its IC50 is less than 0.1 µM.

Q: `CNC(=O)c1c(-c2ccc(F)cc2)oc2cc(N(CCOCCOCc3ccc(Cl)nc3)S(C)(=O)=O)c(C3CC3)cc12` [Compound 19-8B] was tested. Which IC50 did it give?
A: Its IC50 is less than 0.1 µM.

Q: Which IC50 does the source give for `CCOC(=O)c1ccc(COCCOCCN(c2cc3oc(-c4ccc(F)cc4)c(C(=O)NC)c3cc2C2CC2)S(C)(=O)=O)c2ccccc12` [Compound 20-7, 4-[2-(2-{[5-Cyclopropyl-2-(4-fluoro-phenyl)-3-methylcarbamoyl-benzofuran-6-yl]-methanesulfonyl-amino}-ethoxy)-ethoxymethyl]-naphthalene-1-carboxylic Acid Ethyl Ester] here?
A: The IC50 was 0.1 to 1 µM.

Q: Which IC50 does the source give for `CNC(=O)c1c(-c2ccc(F)cc2)oc2cc(N(CCOCCOCc3ccc(C(=O)O)c4ccccc34)S(C)(=O)=O)c(C3CC3)cc12` [Compound 20-8, 4-[2-(2-{[5-Cyclopropyl-2-(4-fluoro-phenyl)-3-methylcarbamoyl-benzofuran-6-yl]-methanesulfonyl-amino}-ethoxy)-ethoxymethyl]-naphthalene-1-carboxylic Acid] here?
A: The IC50 was less than 0.1 µM.

Q: `CNC(=O)c1c(-c2ccc(F)cc2)oc2cc(N(CCOCCSC(C)=O)S(C)(=O)=O)c(C3CC3)cc12` [Compound 21-5, Thioacetic Acid S-[2-(2-{[5-cyclopropyl-2-(4-fluoro-phenyl)-3-methylcarbamoyl-benzofuran-6-yl]-methanesulfonyl-amino}-ethoxy)-ethyl] Ester] was tested. Which IC50 did it give?
A: Its IC50 is less than 0.1 µM.

Q: How did the IC50 turn out when `CNC(=O)c1c(-c2ccc(F)cc2)oc2cc(N(CCOCCOCCOCC(=O)OC(C)(C)C)S(C)(=O)=O)c(C3CC3)cc12` [Compound 23-5A, {2-[2-(2-{[5-Cyclopropyl-2-(4-fluoro-phenyl)-3-methylcarbamoyl-benzofuran-6-yl]-methanesulfonyl-amino}-ethoxy)-ethoxy]-ethoxy}-acetic Acid Tert-butyl Ester] was run?
A: Its IC50 is greater than 1 µM.

Q: Which IC50 does the source give for `CNC(=O)c1c(-c2ccc(F)cc2)oc2cc(N(CCOCCOCCOCC(N)=O)S(C)(=O)=O)c(C3CC3)cc12` [Compound 23-7A, 6-({2-[2-(2-Carbamoylmethoxy-ethoxy)-ethoxy]-ethyl}-methanesulfonyl-amino)-5-cyclopropyl-2-(4-fluoro-phenyl)-benzofuran-3-carboxylic Acid Methylamide] here?
A: Its IC50 is 0.1 to 1 µM.

Q: `CNC(=O)c1c(-c2ccc(F)cc2)oc2cc(N(CCOCCOCCOCCC(=O)O)S(C)(=O)=O)c(C3CC3)cc12` [Compound 24-4, 3-{2-[2-(2-{[5-Cyclopropyl-2-(4-fluoro-phenyl)-3-methylcarbamoyl-benzofuran-6-yl]-methanesulfonyl-amino}-ethoxy)-ethoxy]-ethoxy}-propionic Acid] was tested. Which IC50 did it give?
A: Its IC50 is 0.1 to 1 µM.

Q: Which IC50 does the source give for `CCOC(=O)C(OCCOCCOCCN(c1cc2oc(-c3ccc(F)cc3)c(C(=O)NC)c2cc1C1CC1)S(C)(=O)=O)c1ccccc1` (centres unmarked) [Compound 25-4, {2-[2-(2-{[5-Cyclopropyl-2-(4-fluoro-phenyl)-3-methylcarbamoyl-benzofuran-6-yl]-methanesulfonyl-amino}-ethoxy)-ethoxy]-ethoxy}-phenyl-acetic Acid Ethyl Ester] here?
A: Its IC50 is greater than 1 µM.

Q: `CNC(=O)c1c(-c2ccc(F)cc2)oc2cc(N(CCOCCOCCOC(C(=O)NO)c3ccccc3)S(C)(=O)=O)c(C3CC3)cc12` (centres unmarked) [Compound 25-6, 5-Cyclopropyl-2-(4-fluoro-phenyl)-6-[(2-{2-[2-(hydroxycarbamoyl-phenyl-methoxy)-ethoxy]-ethoxy}-ethyl)-methanesulfonyl-amino]-benzofuran-3-carboxylic Acid Methylamide] was tested. Which IC50 did it give?
A: Its IC50 is greater than 1 µM.

Q: With `CNC(=O)c1c(-c2ccc(F)cc2)oc2cc(N(CCOCCOCCOC3(C(=O)OC(C)(C)C)CCCC3)S(C)(=O)=O)c(C3CC3)cc12` [Compound 26-6A] as the compound, how does the IC50 read?
A: Its IC50 is greater than 1 µM.

Q: How did the IC50 turn out when `CNC(=O)c1c(-c2ccc(F)cc2)oc2cc(N(CCOCCOCCOC(C)(C)C(=O)OC(C)(C)C)S(C)(=O)=O)c(C3CC3)cc12` [Compound 26-6B, 2-{2-[2-(2-{[5-Cyclopropyl-2-(4-fluoro-phenyl)-3-methylcarbamoyl-benzofuran-6-yl]-methanesulfonyl-amino}-ethoxy)-ethoxy]-ethoxy}-2-methyl-propionic Acid Tert-butyl Ester] was run?
A: Its IC50 is greater than 1 µM.

Q: How did the IC50 turn out when `CNC(=O)c1c(-c2ccc(F)cc2)oc2cc(N(CCOCCOCCOC3(C(=O)O)CCCC3)S(C)(=O)=O)c(C3CC3)cc12` [Compound 26-7A, 1-{2-[2-(2-{[5-Cyclopropyl-2-(4-fluoro-phenyl)-3-methylcarbamoyl-benzofuran-6-yl]-methanesulfonyl-amino}-ethoxy)-ethoxy]-ethoxy}-cyclopentanecarboxylic Acid] was run?
A: Its IC50 is less than 0.1 µM.

Q: For `CNC(=O)c1c(-c2ccc(F)cc2)oc2cc(N(CCOCCOCCOC(C)(C)C(=O)O)S(C)(=O)=O)c(C3CC3)cc12` [Compound 26-7B, 2-{2-[2-(2-{[5-Cyclopropyl-2-(4-fluoro-phenyl)-3-methylcarbamoyl-benzofuran-6-yl]-methanesulfonyl-amino}-ethoxy)-ethoxy]-ethoxy}-2-methyl-propionic Acid], which IC50 is on record?
A: The IC50 was 0.1 to 1 µM.

Q: `CNC(=O)c1c(-c2ccc(F)cc2)oc2cc(N(CCOCCOCCOC(C)(C)C(=O)NO)S(C)(=O)=O)c(C3CC3)cc12` [Compound 26-8B, 5-Cyclopropyl-2-(4-fluoro-phenyl)-6-[(2-{2-[2-(1-hydroxycarbamoyl-1-methyl-ethoxy)-ethoxy]-ethoxy}-ethyl)-methanesulfonyl-amino]-benzofuran-3-carboxylic Acid Methylamide] was tested. Which IC50 did it give?
A: Its IC50 is greater than 1 µM.

Q: `CNC(=O)c1c(-c2ccc(F)cc2)oc2cc(N(CCOCCCCCOCC(=O)OC(C)(C)C)S(C)(=O)=O)c(C3CC3)cc12` [Compound 27-8A, [5-(2-{[5-Cyclopropyl-2-(4-fluoro-phenyl)-3-methylcarbamoyl-benzofuran-6-yl]-methanesulfonyl-amino}-ethoxy)-pentyloxy]-acetic Acid Tert-butyl Ester] was tested. Which IC50 did it give?
A: The IC50 was greater than 1 µM.

Q: How did the IC50 turn out when `CNC(=O)c1c(-c2ccc(F)cc2)oc2cc(N(CCOCCCCCOCC(=O)O)S(C)(=O)=O)c(C3CC3)cc12` [Compound 27-9A, [5-(2-{[5-Cyclopropyl-2-(4-fluoro-phenyl)-3-methylcarbamoyl-benzofuran-6-yl]-methanesulfonyl-amino}-ethoxy)-pentyloxy]-acetic Acid] was run?
A: The IC50 was 0.1 to 1 µM.

Q: `CNC(=O)c1c(-c2ccc(F)cc2)oc2cc(N(CCOCCCCCOC(C)C(=O)O)S(C)(=O)=O)c(C3CC3)cc12` (centres unmarked) [Compound 27-9B, 2-[5-(2-{[5-Cyclopropyl-2-(4-fluoro-phenyl)-3-methylcarbamoyl-benzofuran-6-yl]-methanesulfonyl-amino}-ethoxy)-pentyloxy]-propionic Acid] was tested. Which IC50 did it give?
A: The IC50 was 0.1 to 1 µM.

Q: `CNC(=O)c1c(-c2ccc(F)cc2)oc2cc(N(CCCCCOCCCCC(=O)OC(C)(C)C)S(C)(=O)=O)c(C3CC3)cc12` [Compound 28-7A, 5-(5-{[5-Cyclopropyl-2-(4-fluoro-phenyl)-3-methylcarbamoyl-benzofuran-6-yl]-methanesulfonyl-amino}-pentyloxy)-pentanoic Acid Tert-butyl Ester] was tested. Which IC50 did it give?
A: Its IC50 is greater than 1 µM.

Q: With `CNC(=O)c1c(-c2ccc(F)cc2)oc2cc(N(CCCCCOCCCCC(=O)O)S(C)(=O)=O)c(C3CC3)cc12` [Compound 28-8A, 5-((5-(N-(5-cyclopropyl-2-(4-fluorophenyl)-3-(methylcarbamoyl)benzofuran-6-yl)-methylsulfonamido)-pentyl)-oxy)-pentanoic Acid] as the compound, how does the IC50 read?
A: The IC50 was less than 0.1 µM.
